Entries after “also recorded” stand apart in the source; their conditions may differ. Where a SMILES comes first, the peptide text is derived from it. [ ]: non-standard residue; d: D form. The star is where a group is joined. X1 = CN1/C(=C/C=C(/C=C/C2=[N+](C)c3ccccc3C2(C)C)c2ccc(C(=O)*)cn2)C(C)(C)c2ccccc21
Legend:
[1] = test system: Fusarium species; conditions: clinical isolates (Arikan et al., 2001); cited from earlier work
[2] = test system: Aspergillus species; conditions: cited from earlier work
[3] = test system: A. fumigatus and S. aureus; test: Live cell imaging in pig corneal infection model co-infected by A. fumigatus and S. aureus; conditions: 2.5 μM, 15 min incubation at 37° C., co-infected 48 h
Description: The labelled compound can be used to distinguish fungus from S. aureus when using confocal microscopy based on assessing the morphology of the areas of fluorescence. The fungal hyphea can be observed and identified based on its characteristic filamentous shape, and its much larger size compared to the bacteria which appears to be much smaller and having a dotted shape.

[4] = test system: P. aeruginosa; test: Live cell imaging with P. aeruginosa; assay type: cell-based; conditions: 2.5 μM, 37° C. in RPMI, 1 h
[5] = test system: A. fumigatus; test: Live cell imaging in pig corneal infection model; parameters: species or system Aspergillus fumigatus; dose or concentration left out as unconfirmed; conditions: 15 min incubation at 37° C.
Description: MFIGAF001a in a pig corneal infection model was investigated (FIG. 12).
Porcine corneal was infected with A. fumigatus using the same method described above (Biological Example 8). After confirming the success of infection, 1 drop of MFIGAF001 solution in water (2.5 μM) was added topically to the corneal surface and incubated for 15 min at 37° C. before confocal microscopy.

[6] = test system: Fusarium oxysporum; assay type: cell-based; conditions: Conidia (10% Vogel's), 35° C., 24 h
Description: Dose dependent inhibition of fungal growth by all non-labelled peptides (indicated by IC50 values) was determined via this methodology. The assays were performed using Nunc 262162 U96 polystyrene round bottomed clear plates (www.nuncbrand.com).
(§1) When testing the peptides against A. fumigatus, peptides at different concentrations were mixed with A. fumigatus conidia to reach a final volume of 100 μL per well. The final conidial concentration was 5×10^5 cells/mL in 10% Vogel's medium. After 24 h of incubation at 37° C. in 96 well plates, fungal growth with the different peptide concentrations was determined by measurement of the optical density at 610 nm in a TriStar LB 941 Multimode Microplate Reader. The IC50 values were determined using four parameter logistic regression formula provided by Sigma Plot 10.0. Values are represented as means±SEM from two independent experiments (n=3).
When testing the peptides against N. crassa and F. oxysporum, experiments were carried as described above apart from the incubation temperature was changed to 25° C. for N. crassa and 35° C. for F. oxysporum.
(§2) The IC50 of the fluorescently labelled peptides cannot be accurately determined using the optical density method described in the last section. This is because the fluorophore structures absorbed light at 610 nm which was the wavelength used for the optical density measurements. In order to overcome this, the BacTiter-Glo™ Microbial Cell Viability Assay kit purchased from Promega was used. The BacTiter-Glo™ Reagent relies on the properties of a proprietary thermostable luciferase (Ultra-Glo™ Recombinant Luciferase) and a proprietary formulation for extracting ATP from fungal cells which will generates a ‘glow-type’ luminescent signal. This is produced by the luciferase reaction shown in Scheme 1, which has a signal half-life of over 30 min depending on the experimental conditions. The luminescent signal is proportional to the amount of ATP present, which is directly proportional to the number of living cells in culture.
(§3) The IC50 assays for all fluorescently labelled peptides were performed using Greiner CELLSTAR white polystyrene wells flat bottomed 96 well plates. The incubation conditions remained the same for the optical density measurement described in the previous section. Once the incubation procedure was finished, the plate was equilibrated to room temperature. A mixture of BacTiter-Glo™ buffer and substrate was then added to the plate (100 μL per well). The plate was shaken for 5 min and read using the Tristar […] luminometer. Data analysis was performed using Sigma Plot 10.0. All values shown are presented as means±SEM from two independent experiments (n=3).

[7] = test system: C. albicans, F. oxysporum, A. fumigatus, and C. neoformans; test: Live cell imaging, fluorescent labelling of pathogenic fungi; assay type: cell-based; parameters: dose or concentration left out as unconfirmed; conditions: 15 min incubation at 37° C. in RPMI
Description: The N. crassa mat A WT used for confocal live-cell imaging was grown on 100% Vogel's agar medium at 25° C. for 3-5 days before the spores were harvested. The A. fumigatus CEA10 strain used for confocal live-cell imaging was grown on 100% Vogel's medium at 37° C. for 4-5 days before the spores were harvested. Before the confocal experiments were performed, N. crassa spores were incubated in eight-well slide culture chambers for 3 h at 25° C. in liquid 10% Vogel's medium and A. fumigatus spores were incubated for 16 h at 25° C. in liquid 10% Vogel's medium in order to allow germination to fully take place for imaging.
Live-cell imaging of germinated fungi spores was performed using a Leica TCS SP8 confocal laser scanning microscope equipped with photo multiplier tubes (PMT), hybrid GaAsP (HyD) detectors and a 63× water immersion objective. A Leica turntable white light laser (WLL, 450-750 nm), argon laser (458 nm, 476 nm, 488 nm and 496 nm) and UV laser (405 nm) were used for fluorescence excitation.
The major pathogenic fungi include C. albicans, F. oxysporum, A. fumigatus, and C. neoformans.

[8] = Viability of reconstructed cornea-like epithelium (eye irritation model); assay type: cell-based; conditions: human, reconstructed cornea-like epithelium (RhCE, EpiOcular™); 10 μM; read-out: Mean of Viabilities (%)
Description: (§4) FIG. 4a is a graph of the viability reconstructed cornea-like epithelium (RhCE, EpiOcular™) after incubation with MFIGA001. NC=Negative Control; PC=Positive Control. FIG. 4b is a graph of the viability reconstructed cornea-like epithelium (RhCE, EpiOcular™) after incubation with 10 µM of MFIGA001a and MFIGAF001b. NC=Negative Control; PC=Positive Control; A2=MFIGAF001a; and B1=MFIGAF001b.
(§5) MFIGAF001 was also assessed independently by a CRO (Evotec) in an OECD compliant reconstructed cornea-like epithelial cell model (RhCE, EpiOcular™).

[9] = test system: reconstructed cornea-like epithelium (RhCE, EpiOcular™); test: as above; assay type: cell-based; conditions: RhCE, EpiOcular™
Description: as §4, §5

[10] = test system: A. fumigatus; test: Live cell imaging of A. fumigatus in co-cultures with A549; assay type: cell-based, Aspergillus fumigatus; conditions: 2.5 µM, 10 min after addition, 37° C. in RPMI
[11] = test system: rabbit eye; test: Tolerability study on rabbit eyes in vivo; conditions: 10 µM, 50 µL into the right eye, three rabbits, observed 7 days
Description: Three rabbits (rabbits 1, 2 and 3) were tested. All rabbits appeared unaffected immediately post-treatment and through the next 7 days with no signs of irritation and no change in general condition. MFIGAF001a was used at 10 µM and 50 µL and was admitted into the right eye of the rabbits.

[12] = test system: S. aureus; test: Live cell imaging with S. aureus; assay type: cell-based, Staphylococcus aureus; conditions: 2.5 µM, 20 min incubation at 37° C. in RPMI
Description: MFIGAF001a labels gram positive bacteria Staphylococcus aureus. (FIG. 14).

[13] = test system: Human Red Blood Cells (HRBCs); test: Haemolytic activity in human red blood cells; conditions: 10 μM, 37° C., 1 h
Description: Molecules, DMSO (as positive control) and PBS (as negative control) were incubated with human RBCs at 37° C. and their viability was assessed after 1 h.
Erythrocytes were isolated from freshly drawn, anticoagulated human blood and diluted in PBS (1:5). An amount of 50 μl of erythrocyte suspension was added to 50 μl of compounds at 10 µM. DMSO was used as positive control and PBS as negative control. The plate was incubated at 37° C. for 1 h, each well was diluted with 150 μl of PBS and the plate was centrifuged at 1,200 g for 15 min. A total of 100 μl of the supernatant from each well was transferred to a fresh plate, and the absorbance at 350 nm was measured in a microplate reader. Data is represented as % of cell viability as means from three independent experiments with n=3.

[14] = test system: Aspergillus fumigatus; assay type: cell-based; conditions: Conidia (10% Vogel's), 37° C., 24 h
Description: The assays were performed using Nunc 262162 U96 polystyrene round bottomed clear plates (www.nuncbrand.com).
as §1, §2, §3

[15] = test system: Aspergillus fumigatus; assay type: cell-based; conditions: Conidia (RPMI), 37° C., 24 h

SMILES: CC[C@H](C)C[C@H](C)CCCCCCCCC(=O)N[C@H]1C[C@@H](O)[C@@H](NCCN)NC(=O)[C@@H]2[C@@H](O)CCN2C(=O)[C@H]([C@H](O)CCN)NC(=O)[C@H]([C@H](O)[C@@H](O)c2ccc(O)cc2)NC(=O)[C@@H]2C[C@@H](O)CN2C(=O)[C@H]([C@@H](C)O)NC1=O [Caspofungin]
- Activity against Fusarium species (MIC testing) [1]: not particularly active
- MICs against Aspergillus clinical isolates [2]: moderate MICs

SMILES: CN1/C(=C/C=C(/C=C/C2=[N+](C)c3ccccc3C2(C)C)c2ccc(C(=O)NCCCC[C@@H]3NC(=O)[C@H](Cc4c[nH]c5ccccc45)NC(=O)[C@H](Cc4ccccc4)NC(=O)[C@H](Cc4c[nH]c5ccccc45)NC(=O)[C@@H](Cc4ccccc4)NC(=O)[C@H](CCCCN)NC(=O)[C@H](CCCCN)NC(=O)[C@H](CCCNC(=N)N)NC(=O)CNC3=O)cn2)C(C)(C)c2ccccc21 [MFIGAF001a, Cyclo(Arg-Lys-Lys-phe-Trp-Phe-Trp-Lys(Cy5)-Gly)] (cyclo(FWK(X1)GRKK[dF]W))
- Differentiation of fungus from S. aureus by morphology of fluorescence [3]: can be used to differentiate fungal keratitis and gram positive bacterial keratitis
- Selectivity over gram negative bacteria Pseudomonas (labelling) [4]: great selectivity
- Selective labelling of A. fumigatus over porcine corneal tissue [5]: selectively labelled A. fumigatus
- IC50 Fusarium oxysporum [6]: 1.5 µg/mL
- Fluorescent labelling of pathogenic fungi [7]: label all major pathogenic fungi that cause fungal keratitis; also recorded: rapid and highly fluorogenic labelling
- viability at 10 µM [8]: 98%
- Toxicity, reconstructed cornea-like epithelium (FIG. 4) [9]: no obvious toxicity
- Selective labelling of A. fumigatus over A549 [10]: selectively labels A. fumigatus over A549 cell
- Tolerability / eye irritation in rabbit eye [11]: no eye irritation; also recorded: well tolerated
- Labelling of gram positive bacteria Staphylococcus aureus [12]: labels
- Haemolytic activity against HRBCs [13]: no haemolytic activity
- IC50 Aspergillus fumigatus [14]: 1.3 µg/mL

SMILES: C[C@@H]1C/C=C/C=C/C=C/C=C/[C@H](O[C@@H]2O[C@H](C)[C@@H](O)[C@H](N)[C@@H]2O)C[C@@H]2O[C@](O)(C[C@@H](O)C[C@H]3O[C@@H]3/C=C/C(=O)O1)C[C@H](O)[C@H]2C(=O)O [Natamycin]
- IC99 Aspergillus fumigatus [15]: 39 mg/L

Reference: patent US20240299591A1, “Antimicrobial Peptides and Their Use” (priority 2021, published 2024)
